Values of other authors, collected in PMC10329608, “Investigation of the structure-activity relationship at the N-terminal part of minigastrin analogs” (EJNMMI Research, 2023).

Tested on: A431-CCK-2R tumor
Settings: mouse, in vivo, 1 h; cited from earlier work

## DOTA-D-Glu-Ala-Tyr-Gly-Trp-(N-Me)Nle-Asp-1-Nal-NH2 [[^68 Ga]Ga-DOTA-MGS5]
  activity levels in the tumor: 23.3 ± 4.7 %ID/g
  activity uptake in the kidneys: 5.7 ± 1.4 %ID/g
